Results: patent US11136329B2, “JAK inhibitors” (Vimalan Biosciences, Inc., priority 2019, dated 2021)

How the values were obtained:
Format in all cases: biochemical
JAK3 = JAK3 (Homo sapiens (Human), UniProt P52333); assay: JAK/TYK2 assay (Kinase Glo luminescence), JAK3; conditions: 1.5 nM enzyme, 2 uM ATP, 4 uM pEY, 1 hr
Experimental: (§1) 10 mM test compound stock or 1 mM control compound stock (tofocitinib, ruxolitinib or staurosporine) in DMSO was diluted to 0.4 mM in DMSO. A 3-fold series dilution was then performed in DMSO to generate 10 different compound concentrations. The assay was carried out in 384-well white plate. 0.5 uL of 40× compound DMSO solution at different concentrations was mixed with 10 uL 2× enzyme prepared in reaction buffer (20 mM HEPES, 10 mM MgCl2, 0.01% Tween, 1 mM DTT, pH 7.5). 10 uL 2× substrate mixture prepared in reaction buffer was then added to start the reaction. A short spin was done to settle down all solutions to the bottom of the plate. Final concentrations of test compound in the reaction mixture were 10000, 3333, 1111, 370, 123, 41.2, 13.7, 4.57, 1.52and 0.51 nM. Concentrations of control compound were ten times less. Enzymatic reaction was conducted at 25° C. for 1-2 hours. 10 uL of Kinase Glo Reagents was added to stop the reaction and generate the luminescent signal which was measured using Envision. Luminescence signal was inversely related to kinase activity. […] The mixture without any compound was the positive control.

TYK2 = TYK2 (Homo sapiens (Human), UniProt P29597); assay: JAK/TYK2 assay (Kinase Glo luminescence), TYK2; conditions: 9 nM enzyme, 2 uM ATP, 30 uM IRS-1, 1 hr
TYK2, sequence (P29597 whole entry, species assumed): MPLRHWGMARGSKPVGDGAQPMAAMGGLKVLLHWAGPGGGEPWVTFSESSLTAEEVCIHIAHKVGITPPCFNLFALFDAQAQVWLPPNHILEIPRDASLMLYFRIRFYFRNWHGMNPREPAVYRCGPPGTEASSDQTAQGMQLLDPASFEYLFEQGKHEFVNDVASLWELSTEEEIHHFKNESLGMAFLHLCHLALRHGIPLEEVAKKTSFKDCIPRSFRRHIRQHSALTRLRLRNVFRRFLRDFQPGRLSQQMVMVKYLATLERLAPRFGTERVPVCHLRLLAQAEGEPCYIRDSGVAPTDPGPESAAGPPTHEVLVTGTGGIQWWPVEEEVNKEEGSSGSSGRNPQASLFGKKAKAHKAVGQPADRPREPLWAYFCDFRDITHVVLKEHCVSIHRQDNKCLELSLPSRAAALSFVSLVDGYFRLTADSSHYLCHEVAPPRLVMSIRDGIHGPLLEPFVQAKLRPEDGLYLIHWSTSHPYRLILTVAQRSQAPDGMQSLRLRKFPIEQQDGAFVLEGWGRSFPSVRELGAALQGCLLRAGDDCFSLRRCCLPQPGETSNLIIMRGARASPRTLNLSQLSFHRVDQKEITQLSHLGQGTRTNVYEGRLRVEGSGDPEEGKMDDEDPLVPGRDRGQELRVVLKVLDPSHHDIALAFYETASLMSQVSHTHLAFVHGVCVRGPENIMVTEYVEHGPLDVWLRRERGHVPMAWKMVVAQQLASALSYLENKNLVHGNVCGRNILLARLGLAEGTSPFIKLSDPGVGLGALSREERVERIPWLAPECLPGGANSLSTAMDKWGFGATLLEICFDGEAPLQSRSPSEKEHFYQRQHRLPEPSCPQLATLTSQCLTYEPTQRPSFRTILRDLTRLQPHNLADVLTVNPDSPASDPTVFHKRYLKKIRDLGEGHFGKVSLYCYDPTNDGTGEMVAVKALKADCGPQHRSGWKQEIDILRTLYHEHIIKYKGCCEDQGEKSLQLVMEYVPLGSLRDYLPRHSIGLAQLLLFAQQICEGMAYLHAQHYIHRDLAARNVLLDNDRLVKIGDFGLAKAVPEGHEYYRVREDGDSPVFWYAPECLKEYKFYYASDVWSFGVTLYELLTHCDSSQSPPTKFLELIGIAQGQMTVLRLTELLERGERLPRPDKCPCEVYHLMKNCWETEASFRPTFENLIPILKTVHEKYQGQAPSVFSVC
Experimental: as §1

JAK1 = JAK1 (Homo sapiens (Human), UniProt P23458); assay: JAK/TYK2 assay (Kinase Glo luminescence), JAK1; conditions: 7.5 nM enzyme, 2 uM ATP, 30 uM IRS-1, 1 hr
JAK1, sequence (P23458 whole entry, species assumed): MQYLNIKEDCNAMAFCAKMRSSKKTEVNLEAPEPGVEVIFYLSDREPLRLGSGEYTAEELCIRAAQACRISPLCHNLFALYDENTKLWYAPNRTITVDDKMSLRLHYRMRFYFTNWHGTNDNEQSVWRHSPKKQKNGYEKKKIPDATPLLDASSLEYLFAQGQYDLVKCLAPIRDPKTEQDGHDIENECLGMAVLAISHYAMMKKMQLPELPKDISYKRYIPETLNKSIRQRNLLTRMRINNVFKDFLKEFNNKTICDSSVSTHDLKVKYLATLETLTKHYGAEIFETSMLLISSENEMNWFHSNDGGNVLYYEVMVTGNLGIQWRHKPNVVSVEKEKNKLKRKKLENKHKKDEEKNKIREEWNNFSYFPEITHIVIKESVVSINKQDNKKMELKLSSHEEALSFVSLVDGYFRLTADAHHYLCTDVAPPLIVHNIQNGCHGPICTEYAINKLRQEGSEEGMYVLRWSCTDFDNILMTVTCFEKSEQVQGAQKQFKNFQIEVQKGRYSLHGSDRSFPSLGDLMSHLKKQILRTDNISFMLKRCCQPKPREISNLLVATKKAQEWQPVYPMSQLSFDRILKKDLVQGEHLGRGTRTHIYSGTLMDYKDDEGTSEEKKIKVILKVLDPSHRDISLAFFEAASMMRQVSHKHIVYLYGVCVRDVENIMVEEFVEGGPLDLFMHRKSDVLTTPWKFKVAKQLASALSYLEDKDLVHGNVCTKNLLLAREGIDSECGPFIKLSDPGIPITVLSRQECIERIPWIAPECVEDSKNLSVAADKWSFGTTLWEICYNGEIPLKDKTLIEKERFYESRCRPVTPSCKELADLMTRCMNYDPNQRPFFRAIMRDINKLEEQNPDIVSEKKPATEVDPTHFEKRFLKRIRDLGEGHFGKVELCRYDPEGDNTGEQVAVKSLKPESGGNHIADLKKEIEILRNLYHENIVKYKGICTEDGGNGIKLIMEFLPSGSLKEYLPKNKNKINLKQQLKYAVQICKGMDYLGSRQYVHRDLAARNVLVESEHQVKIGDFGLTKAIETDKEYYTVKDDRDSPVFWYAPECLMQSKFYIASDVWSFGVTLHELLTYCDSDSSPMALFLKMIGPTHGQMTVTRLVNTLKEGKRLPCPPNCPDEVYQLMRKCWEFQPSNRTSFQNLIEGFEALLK
Experimental: as §1

JAK2 = JAK2 (Homo sapiens (Human), UniProt O60674); assay: JAK/TYK2 assay (Kinase Glo luminescence), JAK2; conditions: 0.8 nM enzyme, 2 uM ATP, 4 uM pEY, 1 hr
JAK2, sequence (O60674 whole entry, species assumed): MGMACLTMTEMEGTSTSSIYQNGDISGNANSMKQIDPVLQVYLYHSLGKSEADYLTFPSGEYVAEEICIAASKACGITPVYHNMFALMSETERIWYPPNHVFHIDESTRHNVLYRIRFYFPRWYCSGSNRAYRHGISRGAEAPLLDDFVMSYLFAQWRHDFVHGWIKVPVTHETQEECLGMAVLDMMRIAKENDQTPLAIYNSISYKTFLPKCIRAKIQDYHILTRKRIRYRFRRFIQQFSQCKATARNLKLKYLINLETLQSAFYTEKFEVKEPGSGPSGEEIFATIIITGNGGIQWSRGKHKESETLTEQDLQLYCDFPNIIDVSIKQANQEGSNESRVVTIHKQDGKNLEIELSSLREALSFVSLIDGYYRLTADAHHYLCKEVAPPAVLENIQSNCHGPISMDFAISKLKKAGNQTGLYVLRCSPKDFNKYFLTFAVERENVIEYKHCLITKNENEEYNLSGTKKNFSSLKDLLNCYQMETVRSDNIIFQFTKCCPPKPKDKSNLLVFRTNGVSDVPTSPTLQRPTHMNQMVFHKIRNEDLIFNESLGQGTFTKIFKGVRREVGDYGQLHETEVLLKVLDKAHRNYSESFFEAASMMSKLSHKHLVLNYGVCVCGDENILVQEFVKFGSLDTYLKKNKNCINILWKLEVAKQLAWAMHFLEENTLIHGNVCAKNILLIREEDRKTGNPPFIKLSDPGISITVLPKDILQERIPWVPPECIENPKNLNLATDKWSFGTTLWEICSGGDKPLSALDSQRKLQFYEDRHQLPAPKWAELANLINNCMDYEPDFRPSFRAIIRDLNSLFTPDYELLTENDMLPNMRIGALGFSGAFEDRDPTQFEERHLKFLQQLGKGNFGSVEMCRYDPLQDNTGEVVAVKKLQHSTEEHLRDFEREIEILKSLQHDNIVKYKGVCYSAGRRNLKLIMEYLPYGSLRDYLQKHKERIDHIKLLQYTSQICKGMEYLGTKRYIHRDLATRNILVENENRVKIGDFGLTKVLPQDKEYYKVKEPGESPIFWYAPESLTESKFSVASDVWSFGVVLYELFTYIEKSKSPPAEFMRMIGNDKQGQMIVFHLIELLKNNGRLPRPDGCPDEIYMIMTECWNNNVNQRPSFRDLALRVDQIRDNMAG
Experimental: as §1

JAK3, sequence (P52333 whole entry, species assumed): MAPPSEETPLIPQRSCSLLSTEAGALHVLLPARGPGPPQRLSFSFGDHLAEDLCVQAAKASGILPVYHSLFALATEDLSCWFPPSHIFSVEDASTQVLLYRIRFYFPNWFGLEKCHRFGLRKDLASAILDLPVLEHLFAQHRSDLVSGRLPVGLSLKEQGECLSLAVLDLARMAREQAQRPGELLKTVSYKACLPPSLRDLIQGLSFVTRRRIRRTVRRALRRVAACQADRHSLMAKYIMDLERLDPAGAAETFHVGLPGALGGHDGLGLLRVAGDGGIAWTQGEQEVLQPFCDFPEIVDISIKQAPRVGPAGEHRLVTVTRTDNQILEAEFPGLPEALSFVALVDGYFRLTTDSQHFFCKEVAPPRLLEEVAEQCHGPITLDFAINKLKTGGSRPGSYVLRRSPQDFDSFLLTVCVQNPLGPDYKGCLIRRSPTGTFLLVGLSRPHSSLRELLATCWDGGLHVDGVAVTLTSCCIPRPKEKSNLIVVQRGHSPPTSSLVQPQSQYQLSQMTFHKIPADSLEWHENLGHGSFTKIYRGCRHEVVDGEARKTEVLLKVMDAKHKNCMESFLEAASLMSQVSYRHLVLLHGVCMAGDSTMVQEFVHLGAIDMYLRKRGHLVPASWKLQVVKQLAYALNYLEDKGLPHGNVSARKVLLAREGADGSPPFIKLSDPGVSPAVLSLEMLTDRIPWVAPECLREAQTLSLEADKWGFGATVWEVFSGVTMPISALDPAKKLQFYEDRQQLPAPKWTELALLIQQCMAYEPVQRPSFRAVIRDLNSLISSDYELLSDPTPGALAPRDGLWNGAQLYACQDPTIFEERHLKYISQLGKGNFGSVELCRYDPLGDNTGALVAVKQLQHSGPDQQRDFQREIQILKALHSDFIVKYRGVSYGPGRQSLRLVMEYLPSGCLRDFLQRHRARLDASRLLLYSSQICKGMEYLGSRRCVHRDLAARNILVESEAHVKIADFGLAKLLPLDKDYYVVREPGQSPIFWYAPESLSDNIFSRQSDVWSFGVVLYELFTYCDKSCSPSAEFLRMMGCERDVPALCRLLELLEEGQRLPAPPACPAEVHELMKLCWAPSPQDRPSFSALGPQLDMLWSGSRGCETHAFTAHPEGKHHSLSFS

Row | IC50 (JAK3) [nM] | IC50 (TYK2) [nM] | IC50 (JAK1) [nM] | IC50 (JAK2) [nM] | Compound
1 | < 100 | < 100 | 100 to 1000 | < 100 | CCOC(=O)Cn1cc(Nc2ncc3ccn(CC4CCCCCC4)c3n2)cn1 [Compound 43, ethyl 2-(4-((7-(cycloheptylmethyl)-7H-pyrrolo[2,3-d]pyrimidin-2-yl)amino)-1H-pyrazol-1-yl)acetate]
2 | < 100 | < 100 | < 100 | < 100 | CCC(CC)Cn1ccc2cnc(Nc3cnn(CC(=O)OCCC#N)c3)nc21 [Compound 89, 2-cyanoethyl 2-(4-((7-(2-ethylbutyl)-7H-pyrrolo[2,3-d]pyrimidin-2-yl)amino)-1H-pyrazol-1-yl)acetate]
3 | < 100 | < 100 | < 100 | < 100 | CCOC(=O)Cn1cc(Nc2ncc3ccn(CC4(C)CCCC4)c3n2)cn1 [Compound 41, ethyl 2-(4-((7-((1-methylcyclopentyl)methyl)-7H-pyrrolo[2,3-d]pyrimidin-2-yl)amino)-1H-pyrazol-1-yl)acetate]
4 | < 100 | < 100 | < 100 | < 100 | O=C(O)Cn1cc(Nc2ncc3ccn(CC4CCCCC4(F)F)c3n2)cn1 (stereo not shown) [Compound 37, 2-(4-((7-((2,2-difluorocyclohexyl)methyl)-7H-pyrrolo[2,3-d]pyrimidin-2-yl)amino)-1H-pyrazol-1-yl)acetic acid]
5 | < 100 | < 100 | < 100 | < 100 | CCOC(=O)Cn1cc(Nc2ncc3ccn(Cc4ccsc4)c3n2)cn1 [Compound 10, ethyl 2-(4-((7-(thiophen-3-ylmethyl)-7H-pyrrolo[2,3-d]pyrimidin-2-yl)amino)-1H-pyrazol-1-yl)acetate]
6 | < 100 | < 100 | < 100 | < 100 | CCC(CC)Cn1ccc2cnc(Nc3cnn(CC(=O)OC(C)C)c3)nc21 [Compound 93, isopropyl 2-(4-((7-(2-ethylbutyl)-7H-pyrrolo[2,3-d]pyrimidin-2-yl)amino)-1H-pyrazol-1-yl)acetate]
7 | < 100 | 100 to 1000 | 100 to 1000 | < 100 | CCOC(=O)Cn1cc(Nc2ncc3ccn(Cc4csc(C)n4)c3n2)cn1 [Compound 55, ethyl 2-(4-((7-((2-methylthiazol-4-yl)methyl)-7H-pyrrolo[2,3-d]pyrimidin-2-yl)amino)-1H-pyrazol-1-yl)acetate]
8 | < 100 | < 100 | < 100 | < 100 | CCC(Cn1ccc2cnc(Nc3cnn(CC(=O)OCCO)c3)nc21)C(C)C (stereo not shown) [Compound 85, 2-hydroxyethyl 2-(4-((7-(2-ethyl-3-methylbutyl)-7H-pyrrolo[2,3-d]pyrimidin-2-yl)amino)-1H-pyrazol-1-yl)acetate]
9 | 100 to 1000 | 100 to 1000 | 1000 to 10000 | 100 to 1000 | CCOC(=O)Cn1cc(Nc2ncc3ccn(CCC#N)c3n2)cn1 [Compound 24, ethyl 2-(4-((7-(2-cyanoethyl)-7H-pyrrolo[2,3-d]pyrimidin-2-yl)amino)-1H-pyrazol-1-yl)acetate]
10 | < 100 | < 100 | < 100 | < 100 | CCC[C@H](Cn1ccc2cnc(Nc3cnn(CC(=O)OC(C)C)c3)nc21)C(C)C [Compound 100, isopropyl (S)-2-(4-((7-(2-isopropylpentyl)-7H-pyrrolo[2,3-d]pyrimidin-2-yl)amino)-1H-pyrazol-1-yl)acetate]
11 | < 100 | < 100 | < 100 | < 100 | CCC(Cn1ccc2cnc(Nc3cnn(CC(=O)O[C@H](C)CO)c3)nc21)C(C)C (stereo partly drawn) [Compound 106, (R)-1-hydroxypropan-2-yl 2-(4-((7-(2-ethyl-3-methylbutyl)-7H-pyrrolo[2,3-d]pyrimidin-2-yl)amino)-1H-pyrazol-1-yl)acetate]
12 | < 100 | < 100 | < 100 | < 100 | CC[C@H](Cn1ccc2cnc(Nc3cnn(CC(=O)OCC4COC4)c3)nc21)C(C)C [Compound 141, oxetan-3-ylmethyl (S)-2-(4-((7-(2-ethyl-3-methylbutyl)-7H-pyrrolo[2,3-d]pyrimidin-2-yl)amino)-1H-pyrazol-1-yl)acetate]
13 | < 100 | < 100 | < 100 | < 100 | O=C(O)CCn1cc(Nc2ncc3ccn(C[C@H]4CC[C@H](O)CC4)c3n2)cn1 [Compound 117, 3-(4-((7-(((1r,4r)-4-hydroxycyclohexyl)methyl)-7H-pyrrolo[2,3-d]pyrimidin-2-yl)amino)-1H-pyrazol-1-yl)propanoic acid]
14 | < 100 | < 100 | 100 to 1000 | < 100 | O=C(O)Cn1cc(Nc2ncc3ccn(Cc4ccsc4)c3n2)cn1 [Compound 11, 2-(4-((7-(thiophen-3-ylmethyl)-7H-pyrrolo[2,3-d]pyrimidin-2-yl)amino)-1H-pyrazol-1-yl)acetic acid]
15 | < 100 | < 100 | < 100 | < 100 | CCC(Cn1ccc2cnc(Nc3cnn(C(=O)OC(C)(C)C)c3)nc21)C(C)C (stereo not shown) [Compound 137, tert-butyl 4-((7-(2-ethyl-3-methylbutyl)-7H-pyrrolo[2,3-d]pyrimidin-2-yl)amino)-1H-pyrazole-1-carboxylate]
16 | < 100 | < 100 | < 100 | < 100 | CCOC(=O)Cn1cc(Nc2ncc3ccn(CC(CC)CO)c3n2)cn1 (stereo not shown) [Compound 65, ethyl 2-(4-((7-(2-(hydroxymethyl)butyl)-7H-pyrrolo[2,3-d]pyrimidin-2-yl)amino)-1H-pyrazol-1-yl)acetate]
17 | < 100 | < 100 | < 100 | < 100 | CC[C@H](Cn1ccc2cnc(Nc3cnn(CC(=O)O)c3)nc21)C(C)C [Compound 104, (S)-2-(4-((7-(2-ethyl-3-methylbutyl)-7H-pyrroIo[2,3-d]pyrimidin-2-yl)amino)-1H-pyrazol-1-yl)acetic acid]
18 | < 100 | < 100 | 100 to 1000 | < 100 | CCOC(=O)CCn1cc(Nc2ncc3ccn(Cc4ccsc4)c3n2)cn1 [Compound 16, ethyl 3-(4-((7-(thiophen-3-ylmethyl)-7H-pyrrolo[2,3-d]pyrimidin-2-yl)amino)-1H-pyrazol-1-yl)propanoate]
19 | < 100 | < 100 | < 100 | < 100 | CC[C@@H](Cn1ccc2cnc(Nc3cnn(CC(=O)OC(C)C)c3)nc21)C(C)C [Compound 132, isopropyl (R)-2-(4-((7-(2-ethyl-3-methylbutyl)-7H-pyrrolo[2,3-d]pyrimidin-2-yl)amino)-1H-pyrazol-1-yl)acetate]
20 | < 100 | < 100 | < 100 | < 100 | CC[C@H](Cn1ccc2cnc(Nc3cnn(CCC(=O)O)c3)nc21)C(C)C [Compound 115, (S)-3-(4-((7-(2-ethyl-3-methylbutyl)-7H-pyrrolo[2,3-d]pyrimidin-2-yl)amino)-1H-pyrazol-1-yl)propanoic acid]
21 | < 100 | < 100 | < 100 | < 100 | CCC(CC)Cn1ccc2cnc(Nc3cnn(CC(=O)OCCN(C)C)c3)nc21 [Compound 103, 2-(dimethylamino)ethyl 2-(4-((7-(2-ethylbutyl)-7H-pyrrolo[2,3-d]pyrimidin-2-yl)amino)-1H-pyrazol-1-yl)acetate]
22 | < 100 | < 100 | < 100 | < 100 | CCOC(=O)Cn1cc(Nc2ncc3ccn(C[C@H]4CC[C@H](O)CC4)c3n2)cn1 [Compound 51, ethyl 2-(4-((7-(((1r,4r)-4-hydroxycyclohexyl)methyl)-7H-pyrrolo[2,3-d]pyrimidin-2-yl)amino)-1H-pyrazol-1-yl)acetate]
23 | < 100 | < 100 | < 100 | < 100 | O=C(O)CCn1cc(Nc2ncc3ccn(Cc4ccsc4)c3n2)cn1 [Compound 19, 3-(4-((7-(thiophen-3-ylmethyl)-7H-pyrrolo[2,3-d]pyrimidin-2-yl)amino)-1H-pyrazol-1-yl)propanoic acid]
24 | < 100 | < 100 | < 100 | < 100 | CCOC(=O)Cn1cc(Nc2ncc3ccn(CC4(C)CCCCC4)c3n2)cn1 [Compound 47, ethyl 2-(4-((7-((1-methylcyclohexyl)methyl)-7H-pyrrolo[2,3-d]pyrimidin-2-yl)amino)-1H-pyrazol-1-yl)acetate]
25 | < 100 | < 100 | < 100 | < 100 | CC(C)OC(=O)Cn1cc(Nc2ncc3ccn(CC(C(C)C)C(C)C)c3n2)cn1 [Compound 94, isopropyl 2-(4-((7-(2-isopropyl-3-methylbutyl)-7H-pyrrolo[2,3-d]pyrimidin-2-yl)amino)-1H-pyrazol-1-yl)acetate]
